Where a SMILES comes first, the peptide text is derived from it.
Columns and labels:
dengue virus type 2 = test: Antiviral activity agaisnt DENV-2 strain New Guinea C infected with hamster BHK-21 cells assessed as reduction in viral growth; assay type: functional, organism-based
Hepatitis C virus [1] = test: Antiviral activity against HCV infected in human Huh-7 cells assessed as reduction in viral replication; assay type: functional, organism-based, Hepacivirus hominis
Ebolavirus [2] = test: Antiviral activity against Ebola virus infected in human HeLa cells assessed as reduction in viral cytopathic effect; assay type: functional, organism-based; conditions: Orthoebolavirus
Hepatitis C virus [3] = test: Antiviral activity against HCV infected in human Huh-7.5.1 cells assessed as reduction in viral infection incubated for 48 hrs; assay type: functional, organism-based, Hepacivirus hominis; conditions: Huh-7.5.1, 48 h
Hepatitis C virus [4] = test: Antiviral activity against HCV infected in Huh-7 assessed as reduction in viral RNA replication at 0.5 nM relative to control; assay type: functional, Hepacivirus hominis; parameters: scale not given: the % may be the effect or the level left
[5] = Inhibition of HCV RNA; assay type: functional, Hepacivirus hominis
Chikungunya virus [6] = test: Antiviral activity against CHIKV infected in Vero 76 cells assessed as reduction in cytopathic effect; assay type: functional, organism-based
[7] = target: Replicase polyprotein 1ab (Severe acute respiratory syndrome coronavirus 2, UniProt P0DTD1); test: Inhibition of SARS-CoV-2 main protease
[8] = target: Replicase polyprotein 1ab (Severe acute respiratory syndrome-related coronavirus, UniProt P0C6X7); test: Inhibition of SARS-CoV-1 Main Protease
[9] = Inhibition of MERS-CoV Main protease; parameters: species or system Middle East respiratory syndrome-related coronavirus
SARS-CoV-2 = test: Antiviral activity against SARS-CoV-2; assay type: functional, organism-based, Severe acute respiratory syndrome coronavirus 2
Hepatitis C virus [10] = test: Antiviral activity against HCV infected in Huh-7 assessed as inhibition of HCV RNA replication at 5 nM relative to control; assay type: functional, Hepacivirus hominis; parameters: scale not given: the % may be the effect or the level left
Chikungunya virus [11] = test: Antiviral activity against CHIKV infected in HEK293T cells; assay type: functional, organism-based; conditions: HEK-293T
Hepatitis C virus [12] = test: Antiviral activity against HCV infected in human Huh7.5.1 cells assessed as decrease in viral infection; assay type: functional, organism-based, Hepacivirus hominis; conditions: Huh-7.5.1
Ebolavirus [13] = test: Antiviral activity against pseudotyped Ebola virus infected in HeLa cells assessed as reduction in viral infection incubated for 48 hrs by firefly luciferase assay; assay type: functional, organism-based; conditions: Orthoebolavirus
[14] = target: Spike glycoprotein/Angiotensin-converting enzyme 2 (Severe acute respiratory syndrome coronavirus 2, UniProt P0DTC2+Q9BYF1); test: Inhibition of SARS-CoV-2 spike protein RBD- human ACE2 interaction incubated for 1 hr by colorimetric ELISA assay
Spike glycoprotein/Angiotensin-converting enzyme 2, sequence (Q9BYF1 18-805 limits assumed, other chains not shown): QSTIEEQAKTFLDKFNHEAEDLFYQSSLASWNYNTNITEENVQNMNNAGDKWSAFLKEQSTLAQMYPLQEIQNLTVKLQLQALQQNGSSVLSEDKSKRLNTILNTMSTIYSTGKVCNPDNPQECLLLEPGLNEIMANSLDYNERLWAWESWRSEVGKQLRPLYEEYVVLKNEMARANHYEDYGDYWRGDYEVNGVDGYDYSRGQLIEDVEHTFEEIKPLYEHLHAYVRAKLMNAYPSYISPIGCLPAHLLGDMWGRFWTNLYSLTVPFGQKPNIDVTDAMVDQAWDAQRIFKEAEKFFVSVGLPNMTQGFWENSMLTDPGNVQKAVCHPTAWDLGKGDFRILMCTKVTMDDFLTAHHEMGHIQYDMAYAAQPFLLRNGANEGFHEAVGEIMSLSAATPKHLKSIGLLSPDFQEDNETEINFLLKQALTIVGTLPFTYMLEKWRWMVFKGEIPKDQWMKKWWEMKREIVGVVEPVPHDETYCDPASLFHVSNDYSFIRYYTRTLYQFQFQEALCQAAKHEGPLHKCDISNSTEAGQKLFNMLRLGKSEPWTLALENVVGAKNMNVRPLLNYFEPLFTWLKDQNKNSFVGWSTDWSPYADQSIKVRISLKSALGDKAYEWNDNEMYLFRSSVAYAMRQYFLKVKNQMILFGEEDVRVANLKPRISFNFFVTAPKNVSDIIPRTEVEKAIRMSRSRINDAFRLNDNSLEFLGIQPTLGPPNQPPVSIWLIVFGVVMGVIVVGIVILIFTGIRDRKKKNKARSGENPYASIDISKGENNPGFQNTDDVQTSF

Q: For `Clc1ccc(-c2ccc(-c3nc(NCc4cccnc4)nc4ccccc34)s2)cc1`, which EC50 (dengue virus type 2) is on record?
A: 68 nM

Q: Which EC50 (Hepatitis C virus [1]) does the source give for `C[C@H]1O[C@@H](O[C@H]2CC[C@@]3(C)[C@@H](CC[C@]4(C)[C@@H]3C=CC3=C5CC(C)(C)CC[C@]5(CO)[C@H](O)C[C@]34C)[C@]2(C)CO)[C@H](O)[C@@H](O[C@@H]2O[C@H](CO)[C@@H](O)[C@H](O)[C@H]2O)[C@H]1O` here?
A: 20.7 µM

Q: With `COC(=O)c1ccc(COc2ccccc2CN2CCN(C(=O)CNC(=O)CC34CC5CC(CC(C5)C3)C4)CC2)cc1` as the molecule, how does the IC50 (Ebolavirus [2]) read?
A: 130 nM

Q: With `CC[C@H](C)[C@H](NC(=O)[C@H](C)NC(=O)[C@H](Cc1c[nH]c2ccccc12)NC(=O)[C@H](CO)NC(=O)[C@H](C)N)C(=O)N[C@@H](CCCCN)C(=O)N[C@@H](Cc1c[nH]c2ccccc12)C(=O)N[C@@H](CCC(=O)O)C(=O)N[C@@H](Cc1ccc(O)cc1)C(=O)N[C@H](C(=O)N[C@H](C(=O)N[C@@H](CC(C)C)C(=O)N[C@@H](CC(C)C)C(=O)N[C@@H](Cc1ccccc1)C(=O)N[C@@H](CC(C)C)C(=O)N[C@@H](CC(C)C)C(=O)O)C(C)C)C(C)C` (H-ASWAIKWEYVVLLFLL-OH) as the molecule, how does the IC50 (Hepatitis C virus [3]) read?
A: 51 µM

Q: And the Activity (Hepatitis C virus [4])?
A: 60%

Q: For `O=C(CC12CC3CC(CC(C3)C1)C2)NCC(=O)N1CCN(Cc2ccccc2)CC1`, which IC50 (Ebolavirus [2]) is on record?
A: 1600 nM

Q: For `COc1cc(C[C@@]2(O)C(=O)OC[C@@H]2Cc2ccc(OC)c(OC)c2)ccc1O`, which IC50 [5] is on record?
A: 670 nM

Q: For `Cc1ccc(C(=O)Nc2ccc(S(=O)(=O)O)c3cc(S(=O)(=O)O)cc(S(=O)(=O)O)c23)cc1NC(=O)c1cccc(NC(=O)Nc2cccc(C(=O)Nc3cc(C(=O)Nc4ccc(S(=O)(=O)O)c5cc(S(=O)(=O)O)cc(S(=O)(=O)O)c45)ccc3C)c2)c1` [SURAMIN], which IC50 (Chikungunya virus [6]) is on record?
A: 5.68 µM

Q: With `Cc1cc2nc3s/c(=C/c4ccc(-c5cccc(C(=O)O)c5)o4)c(=O)n3c2cc1C` as the molecule, how does the IC50 [7] read?
A: 55 nM

Q: And the IC50 [8]?
A: 59 nM

Q: What about the IC50 [9] of the same molecule?
A: 75 nM

Q: For IVERMECTIN, which EC50 (SARS-CoV-2) is on record?
A: 4.11 µM

Q: For `COc1ccc2cc3[n+](cc2c1OC)CCc1cc2c(cc1-3)OCO2` [BERBERINE], which EC50 (Hepatitis C virus [1]) is on record?
A: 7.87 µM

Q: With `CCOC(=O)c1c(CSc2ccccc2)n(C)c2cc(Br)c(O)c(CN(C)C)c12` [UMIFENOVIR] as the molecule, how does the IC50 (Chikungunya virus [6]) read?
A: < 20.9 µM

Q: Which Activity (Hepatitis C virus [10]) does the source give for `CSCC[C@H](NC(=O)[C@H](Cc1c[nH]c2ccccc12)NC(=O)[C@@H](NC(=O)[C@H](CS)NC(=O)CNC(=O)[C@H](Cc1ccccc1)NC(=O)[C@H](Cc1c[nH]c2ccccc12)NC(=O)[C@H](CO)NC(=O)CNC(=O)[C@@H](N)CCC(N)=O)[C@@H](C)O)C(=O)N[C@@H](CC(N)=O)C(=O)N[C@@H](CO)C(=O)N[C@H](C(=O)NCC(=O)N[C@@H](Cc1ccccc1)C(=O)O)[C@@H](C)O` here?
A: 50%

Q: Which IC50 (Chikungunya virus [11]) does the source give for `COc1cc(OC)c2c(c1)O[C@@]1(c3ccc(Br)cc3)[C@H](c3ccccc3)C[C@@H](O)[C@@]21O` here?
A: 22.4 nM

Q: With `CC(C)[C@H](NC(=O)[C@H](Cc1c[nH]c2ccccc12)NC(=O)[C@@H](NC(=O)[C@H](C)N)[C@@H](C)O)C(=O)N[C@@H](CS)C(=O)NCC(=O)N1CCC[C@H]1C(=O)N[C@@H](CS)C(=O)N[C@H](C(=O)O)[C@@H](C)O` (H-ATWVCGPCT-OH) as the molecule, how does the IC50 (Hepatitis C virus [12]) read?
A: 5.5 µM

Q: Which IC50 (Ebolavirus [13]) does the source give for `FC(C1=Nc2ccccc2N=C(c2ccccc2)C1)C(F)(F)F` (stereo not given) here?
A: 10 µM

Q: With `CN1C(=O)c2ccccc2[S+]([O-])c2cc([N+](=O)[O-])ccc2S1(=O)=O` (stereo not given) as the molecule, how does the IC50 [14] read?
A: 670 nM

Q: With `COc1c(NC(=O)C(=O)c2ccc(OCCN3CCOCC3)c3ccccc23)cc(C(C)(C)C)cc1NS(C)(=O)=O` [ITX-5061 FREE BASE] as the molecule, how does the EC50 (Hepatitis C virus [1]) read?
A: 0.0001 µM
